From patent US20230003721A1, “MITOTHERAPEUTICS FOR THE TREATMENT OF BRAIN DISORDERS” (The University of Florida Research Foundation, Inc., priority 2019, published 2023)
Structures can show the parent of a compound that is named as a salt. Where two headings read alike, the source gives them in different places.

Tests used:
[1] = tested on: primary forebrain neurons; test: cells; settings: 24 h; for EC50: Mus musculus, Neuron; for Dendritic Mt CA / Neurite Area: rescreen, 12.5 μM, vs DMSO wells
[2] = tested on: isolated forebrain mitochondria; test: ATP production of isolated mitochondria (luciferase-based kinetic assay); format: biochemical, mouse
Experimental: Isolation of mitochondria. For the ATP synthesis experiments of FIG. 6, forebrains from P0 pups were dissected as described above. 2×10^7 cells were harvested for high-purity mitochondrial isolation using the Qiagen QProteome kit. The mitochondrial pellet was resuspended in 500 μl mitochondria storage buffer (provided by kit) and kept on ice until further use.
ATP production of isolated forebrain mitochondria of P0 pups was measured by ATP Determination Kit (Molecular Probes). […] The reactions were initiated by the addition of 1 mM ADP (deprived of ATP contamination by adding 3 U/ml hexokinase to 10 mM of ADP in 50 mM Tris-HCl, 20 mM MgCl2 and 22 mM glucose, incubating the solution at 37° C. for 1 hr and heat inactivating the hexokinase at 100° C. for 3 min). Luminescence was recorded every 15-30 sec for 1 hr at 580±40 nm.

primary neurons [3] = settings: 75 μM peroxide, 12.5 μM compound, 48 h
primary neurons [4] = test: CellTiter-Glo luminescence-based ATP assay; format: cell-based, mouse; settings: for ATP: ATP orthogonal screen, 24 h; for Emax: maximal percent increase relative to in-plate DMSO controls, read-out: ATP (Effect-size)
Method in brief: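 Primary neurons treated from DIV13 for 24 h with compound or DMSO. After part of the medium was removed, CellTiter-Glo reagent was added; plates were shaken 10 min at 200 rpm, kept 2 min in the dark at room temperature, and luminescence read as total ATP.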

Drosophila model for AD = test: Drosophila model for AD: neuronal mitochondrial morphology; format: in vivo; settings: cell bodies of neurons; 100 micromolar, 15 days-of-age
Source text: To assay representative compounds in this example, we employed a Drosophila model for AD (X. Wang et al., Mol. Neurobiol. […] Flies expressing this toxic protein show: […] Drugs that show efficacy therefore: enlarge neuronal mitochondria (increased volume, increased surface area, increased length), reduce sphericity, and reduce the number of mitochondria compared to untreated Alzheimer's flies. The AD model flies were collected immediately after eclosion from the pupal case and transferred to food that was laced with drug at 100 micromolar concentration. The flies were aged to 15 days-of-age: this is when the mitochondrial pathology is very robust. We compared the morphology of mitochondria collected from these flies treated with drug and compared them to the mitochondria of flies that remained untreated.

primary neurons [5] = test: TMRM fluorescence assay of inner mitochondrial membrane potential (ΔΨm); settings: for Emax: read-out: TMRM (Effect-size); for TMRM Primary: primary screen, 12.5 μM; for TMRM Primary / TMRM Rescreen: 24 h
primary neurons [6] = test: Mitochondrial morphology and neurite area after functional modulators; format: cell-based, mouse; set-up: key to Neurite Area: non-significant (n.s.); settings: for Mitochondrial Morphology / Neurite Area: significant change
Experimental: Mitochondrial morphology and neurite area measurements. Mitochondrial morphology and neurite area were quantified using methods described by Varkuti et al, 2020. Briefly, Cre-dependent mitochondrial targeted GFP2 (mito-GFP) ROSA26 knock-in mice were crossed with Ai14 (007908, The Jackson Laboratory) expressing cytosolic-tdTomato, and the forebrain of P0 pups were isolated and primary neurons were cultured as described above. AAV9 virus containing the iCRE sequence driven by the neuron specific CaMKII promoter was added to the cell culture at plating and 75% of the media replaced 4 h after plating. […] Z-projected images of the green channel were preprocessed (background subtraction: rolling ball, radius=3; median filtering: radius=1) and somatic mitochondria were removed (see details in Varkuti et al, Science Advances 6 (2020) eaaw8702). Red channel images were also preprocessed (tubeness filter, soma removal). Preprocessed images were segmented by GE Developer software (object-based, kernel size: 3). […] The length and circularity measurements for mitochondria were aggregated using the median and the area for neurites using the sum. After removing empty fields and outlier values from the fields, aggregated field values were averaged to well values (4 fields/well, 12 wells/compound). Robust Z-scores were calculated using DMSO-treated wells for each well ((mediancompound−medianDMSO)/median absolute deviationDMSO), well values were averaged for each compound.
A high-content assay was developed in parallel to monitor aspects of mitochondrial dynamics in primary cultured neurons that conditionally express (Cre recombinase dependent) mitochondrial-tagged GFP and cytosolic tdTomato reporters (Varkuti et al., 2020). We monitored two aspects of neuritic mitochondrial dynamics: (1) the health of mitochondria as measured by the average circularity of axonal mitochondria, since defective mitochondria targeted for mitophagy become circular in shape, and (2) the balance between fission/fusion measured by the average length of dendritic mitochondria. […] FIG. 19A illustrates the results of surveying a collection of functional modulators selected from 5 different structural clusters (FIG. 17), quantified as robust z-scores relative to DMSO-treated control neurons.

primary neurons [7] = test: Oxygen consumption rate (OCR) of permeabilized primary neurons; format: cell-based, mouse
Experimental: The oxygen consumption rate (OCR) of permeabilized neurons and isolated brain mitochondria (from 9-month old mice) was measured by the XF96 Extracellular Flux analyzer (Seahorse Bioscience). […] Prior to the start of the OCR measurement, all but 30 μl of Neurobasal A/B27 culture medium was removed from each well. Cells were washed twice with pre-warmed MAS-BSA assay medium (4 mg/ml fatty-acid free BSA, pH=7.2) and incubated in 180 μl at 37° C. for 5 min. Following the cartridge calibration, cells were loaded into the XF96 Extracellular Flux analyzer and further equilibrated for 10 min with two cycles of 3 min mixing and 2 min resting prior to the first measurement of basal respiration. OCR were measured at 37° C. under basal conditions followed by the sequential injection of pre-warmed 10× mitochondrial substrates/ADP (20 μl), oligomycin (22 μl), FCCP (24 μl), and rotenone/antimycin A (26 μl). The final concentrations of injected compounds were as follows: 10 mM mitochondrial substrates (pyruvate/malate or succinate), 1 mM ADP, 1.5 μM oligomycin, 3 μM FCCP, 2 μM rotenone/antimycin A. Saponin (25 μg/ml) was co-injected with substrate/ADP to permeabilize the cells and stimulate ADP-dependent respiration. Two baseline measurements were obtained prior to any injection and 2 response measurements were collected after each injection except for after FCCP addition which consisted of 1 measurement (9 total measurements in each assay). Each measurement cycle consisted of 2 min mixing, 2 min waiting, and 3 min data acquisition. This protocol allowed for sequential assessment of basal cell respiration, maximal mitochondrial respiratory capacity (State 3 with substrate/ADP), proton leak (State 4o with oligomycin), uncoupled maximal respiration (State 3U with FCCP) and non-mitochondrial respiration with the Complex I/Complex III inhibitors, rotenone/antimycin A. Cells were washed twice with MAS buffer to remove residue BSA contained in the assay medium, lysed in 50 μl lysis buffer (25 mM HEPES, 1 mM EGTA, 1 mM EDTA, 0.1% SDS, 1% NP-40, 1× protease and phosphatase inhibitor, pH 7.0 adjusted with NaOH) and total protein was determined by BCA assay. Oxygen consumption was normalized to total protein content as pmol O2/min/ug total protein.
Oxygen consumption rate (OCR) or extracellular acidification rate (ECAR) measurements from permeabilized neurons and isolated brain mitochondria were performed using the XF96 Extracellular Flux analyzer (Seahorse Bioscience). For assays using cultured neurons, primary neurons were dissociated from the forebrains of P0 pups, seeded at 1.9×10^4/well (PDL-coated XF96 plate), cultured to DIV13 and incubated with selected compounds or DMSO (0.1%) for 24 h. Prior to the start of the OCR measurement, all but 30 μl of Neurobasal A/B27 culture medium was removed from each well. Cells were washed twice with pre-warmed MAS-BSA assay medium (70 mM sucrose, 220 mM mannitol, 10 mM KH2PO4, 5 mM MgCl2, 2 mM HEPES and 1 mM EGTA, 4 mg/ml fatty-acid free BSA, pH=7.2 adjusted using KOH) and incubated in 180 ul MAS-BSA medium at 37° C. in a CO2-free incubator for 5 m. […] OCR and ECAR were measured at 37° C. under basal conditions followed by the sequential injection of pre-warmed 10× mitochondrial substrates/ADP (20 μl), oligomycin (22 μl), FCCP (24 μl), and rotenone/antimycin A (26 μl).

[8] = Mus musculus, Primary neuron, dose response

Structure (SMILES)	Dendritic Mt CA [1]	Neurite Area [1]	protection from peroxide (PO) induced mitochondrial fragmentation (primary neurons [3])	Surface area of mitochondria, p (treated vs untreated) (Drosophila model for AD)	Emax (primary neurons [5]; Mus musculus, Primary neuron)	TMRM Primary (primary neurons [5])	TMRM Rescreen (primary neurons [5])	ATP (primary neurons [4])	Emax (primary neurons [4]; [8])	Mitochondrial Morphology (primary neurons [6])	Neurite Area (primary neurons [6])	also measured
COc1cc(O)c2c(=O)c(O)c(-c3ccc(O)c(O)c3)oc2c1 [RHAMNETIN]	4.48 robust Z-scores	2.04 robust Z-scores	fully protected	p = 0.0564	–	–	–	–	–	–	–	EC50 ([1]; read-out: Elongation (Dend Mt length) EC50): 200 nM; EC50 ([1]; read-out: Health (Ax Mt Circularity) EC50): 2700 nM; EC50 ([1]; read-out: Mt Content (Dend Mt CA) EC50): 200 nM; EC50 ([1]; read-out: Sprouting (Neurite Area) EC50): 300 nM; ATP production kinetics, amplitude of single exponential fit ([2]; 12 μM, starting 20 min after addition, DMSO 22498±358): 10059±166; ATP production of isolated mitochondria (direct effect) ([2]; 12.5 μM, within the 45-min measurement period, vs DMSO): decreased; ATP production in neurons (primary neurons [4]; after 24 hr of treatment): increase
OC1(c2ccc(Cl)c(C(F)(F)F)c2)CCN(CCCC(c2ccc(F)cc2)c2ccc(F)cc2)CC1 [penfluridol]	–	–	–	p = 0.066	25.2%	4.29 Z-scores	4.83 Z-scores	5.75 Z-scores	22.4%	elongated	increased	EC50 (primary neurons [5]; Mus musculus, Primary neuron, read-out: TMRM-EC50): 50 nM; EC50 (primary neurons [4]; Mus musculus, Primary neuron, dose response, 15 concentrations from 6 nM to 100 uM): 30 nM; neuritic area (primary neurons [6]; after 48 h of treatment): increase
CN(C)CCC=C1c2ccccc2COc2ccccc21 [doxepin hydrochloride]	–	–	–	–	26.1%	3.44 Z-scores	5.41 Z-scores	7.03 Z-scores	18.3%	elongated	n.s.	basal rate of respiration (primary neurons [7]; 10 μM, 24 h): weak, non-significant, but consistent trend towards an increased basal rate of respiration; State 3 and 3u respiration with Complex I substrates (primary neurons [7]; 10 μM, 24 h, cultured neurons): significant increase; OCR (primary neurons [7]; oxygen consumption rate, significant change): increased; axonal mitochondrial circularity (primary neurons [6]; after 48 h of treatment): robust effects
Cc1ccccc1C(OCCN(C)C)c1ccccc1 (stereo not drawn) [ORPHENADRINE CITRATE]	3.21 robust Z-scores	0.08 robust Z-scores	fully protected	p = 0.022	25.5%	3.26 Z-scores	5.75 Z-scores	6.08 Z-scores	14.3%	–	–	–
